{
  "source": "patent EP1222180B1",
  "about": "“ENANTIOMERIC COMPOUNDS FOR TREATMENT OF CARDIAC ARRHYTHMIAS AND METHODS OF USE” (ARYx Therapeutics, priority 1999, dated 2001)",
  "key": {"anesthetized rats": {"test_system": "anesthetized rats", "assay": "Anti-arrhythmic activity in anesthetized rats (benzene/adrenaline challenge, EKG recording)", "format": "in vivo, Male Sprague-Dawley rats", "conditions": "for protection against tachyarrhythmia (heart rate increase after adrenaline): administered from time 0 to time 120 minutes, Figure 3; for Heart rate (beats/minute) / Inhibition of VPB / Inhibition of tachycardia / Number of VPB / PR interval / QRS interval / QT interval: isolated enantiomer compared to the racemate, 4 mg/kg i.v. then 12 mg/kg/h for 2 hours; for inhibition of the formation of ventricular premature beats (VPB): period of drug administration (time 0 to 120 min); for anti-VPB activity at the end of the washout period: time 180 min", "method": "Male Sprague-Dawley rats with body weights of 410 ± 30 g (Harlan Sprague Dawley Inc., Indianapolis, IN), were anesthetized with sodium pentobarbital (50 mg/kg i.p. - Butler Co., Columbus, OH). The skin from the neck area was removed and the jugular veins on both sides were cleared of connective tissue. Both jugular veins and the left carotid artery were isolated, and the latter tied up cranially with a surgical silk (ETHICON 4-0, Ethicon Inc., Australia). A plastic catheter ([…] 19ga, Vecton Dickinson, Sandy, UT), filled with a solution containing 10% sodium heparin (Elkins-Sinn Inc., Cherry Hill, NJ) in normal saline (100 U/ml sodium heparin), was introduced into the artery and fixed with surgical silk.\nThe catheter was connected to a pressure transducer (OHMEDA P23-XL, Ohmeda Medical Devices Division Inc., Madison, WI), filled with the same heparinized 0.9% NaCl solution, to register beat-to-beat arterial pressure. Needle electrodes were inserted s.c., and together with the pressure transducer, were joined to a GOULD TA 2000 recorder. Leads II, aVF and intraarterial blood pressure were monitored simultaneously throughout the experiments and recorded at certain intervals at 50 and 200 mm/sec paper speed.\nThe surgery was completed with an incision on the trachea where a short plastic tubing was placed and the animal was connected to a rodent-model ventilator (HARVARD Model 683, Harvard Apparatus, Inc., Holliston, MA). The animals were ventilated in a controlled way, depending on their spontaneous breathing frequency (55-75/min).\nDrug administrations were carried out through i.v. catheters (TERUMO 24 GA*3/4\", Terumo Medical Corp., Elkton, MD) inserted into both jugular veins. The left side was used for drug infusions by means of a syringe pump (SAGE INSTRUMENTS, Model 341B, Orion Res. Inc., Boston, MA), and the right side was used for adrenaline injections. The experiments were started after at least 15 minutes of stabilization. Benzene/adrenaline challenges were performed as follows: the respirator inlet was connected to a 50-ml bubbler half-full with benzene (Fisher Scientific, Fair Lawn, NJ) so that the inspired air was saturated with benzene vapor. The animal was ventilated with benzene vapor for two minutes. The tidal volume was typically 1 ml/100g of animal. During the last 30 seconds of benzene ventilation, 10 µg/kg adrenaline solution (in 0.9% NaCl) was injected into the right jugular vein. […] These arrhythmias could be elicited repeatedly. After three control VTs (at -30, -20 and -10 minutes), the test compounds were injected slowly during 30 seconds at a dose of 4 mg/kg i.v., immediately followed by a slow infusion of 12 mg/kg/h for 2 hours. The flow rate during the infusion period was 1 ml/h.\nThere were 5 rats per test compound and each animal served as its own control. The ability of the different drugs to suppress arrhythmias was tested against repeated benzene/adrenaline challenges at 5, 15, 30, 45, 60, 90, 120 (end of drug infusion), 135, 150, 165 and 180 minutes after the i.v. bolus injection. The amplitudes of the systolic arterial pressure and diastolic arterial pressure […] with the help of a pressure-amplitude calibration curve. Heart rate, number of ventricular complexes during the occurrence of VTs and VPBs, and certain ECG parameters (PR, QRS, QT durations and RR cycle lengths in msec) were also recorded and measured manually. At each time-point, 3-5 cycles were measured and the average values were entered into EXCEL Windows 97. The average and standard deviation for the five experimental animals per compound were calculated."}, "[1]": {"format": "in vitro ADME", "conditions": "human; for hydrolysis half-life: plasma", "method": "Venous blood (60 ml) was collected in heparinized 15-ml Vacutainer® tubes from the forearm of five human volunteers. Each tube contained 1,000 units of heparin sodium salt. The blood was immediately centrifuged at 2,000 g for 10 minutes and the plasma was collected. Immediately after collection, the plasma was divided into 2-ml aliquots in borosilicate glass tubes (5-ml capacity) capped with a plastic stopper. The tubes were then equilibrated in a 37°C-water bath for at least 15 minutes before the test samples were added. Stock solutions were prepared by dissolving 25 µmoles (about 18 mg) of each of the test compounds in 10 ml of deionized water. To each of the glass tubes containing 2 ml of fresh plasma, equilibrated at 37°C, was added 40 µl of the stock solutions (one test compound per tube). The plasma/stock solutions were then mixed. Samples (250 µl) were collected at time 0 (immediately after mixing test compounds in plasma) and then at 30, 60, 90, 120, 180, 240, and 300 minutes. The test tubes were capped, to avoid concentration due to evaporation, and left in the 37°C bath during the entire experiment. […] The tubes were then capped and vortexed, then kept at -20°C until analysis. […] The supernatant was collected for injection in the HPLC system. […] The detection wavelength was set at 242 nm, and the injected volume was 100 µL. The HPLC peaks were recorded, and the integrated values were plotted against time using the SIGMAPLOT software version 4.0 for WINDOWS. The resulting curves were fitted to a first-order exponential decay equation from which hydrolysis half-lives were calculated."}, "[2]": {"conditions": "benzene vapors and adrenaline challenge, Figure 2"}},
  "data": [
    {"smiles": "CC[C@H](C)OC(=O)Cc1oc2ccccc2c1C(=O)c1cc(I)c(OCCN(CC)CC)c(I)c1", "note": "[ATI-2042]", "values": [
      {"measurement": "protection against tachyarrhythmia (heart rate increase after adrenaline)", "setting": "anesthetized rats", "result": "very good protection against this tachyarrhythmia"}
    ]},
    {"smiles": "CC[C@H](C)OC(=O)Cc1oc2ccccc2c1C(=O)c1cc(I)c(OCCN(CC)CC)c(I)c1", "note": "[S-2042, (S)-sec-Butyl 2-[3-(3,5-diiodo-4-(2-diethylaminoethyloxy)benzoyl)]benzofurane-acetate]", "values": [
      {"measurement": "Plasma half-life", "setting": "[1]", "result": 7.3, "unit": "h"},
      {"measurement": "hydrolysis half-life", "setting": "[1]", "result": 7.3, "unit": "h"},
      {"measurement": "effects on the QT segment of the EKG recording (Class-III properties)", "setting": "anesthetized rats; Figure 4", "result": "the most potent and the longest acting"},
      {"measurement": "effects on the PR segment of the EKG recording (Class-IV activity)", "setting": "anesthetized rats; Figure 6", "result": "much more potent than R-2042 and the racemate R,S-2042"},
      {"measurement": "protection against tachyarrhythmia (heart rate increase after adrenaline)", "setting": "anesthetized rats", "result": "more potent and longer acting then R-2042"},
      {"measurement": "Heart rate (beats/minute)", "setting": "anesthetized rats", "result": "lower"},
      {"measurement": "Inhibition of VPB", "setting": "anesthetized rats", "result": "longer"},
      {"measurement": "Inhibition of tachycardia", "setting": "anesthetized rats", "result": "longer"},
      {"measurement": "Number of VPB", "setting": "anesthetized rats", "result": "lower"},
      {"measurement": "PR interval", "setting": "anesthetized rats", "result": "longer"},
      {"measurement": "QRS interval", "setting": "anesthetized rats", "result": "longer"},
      {"measurement": "QT interval", "setting": "anesthetized rats", "result": "longer"},
      {"measurement": "inhibition of the formation of ventricular premature beats (VPB)", "setting": "anesthetized rats; [2]", "result": "totally inhibited the formation of ventricular premature beats for the whole period of drug administration"},
      {"measurement": "anti-VPB activity at the end of the washout period", "setting": "anesthetized rats; [2]", "result": "still retained part of its activity"}
    ]},
    {"smiles": "CC[C@@H](C)OC(=O)Cc1oc2ccccc2c1C(=O)c1cc(I)c(OCCN(CC)CC)c(I)c1", "note": "[R-2042, (R)-sec-Butyl 2-[3-(3,5-diiodo-4-(2-diethylaminoethyloxy)benzoyl)]benzofurane-acetate]", "values": [
      {"measurement": "Plasma half-life", "setting": "[1]", "result": 5.0, "unit": "h"},
      {"measurement": "hydrolysis half-life", "setting": "[1]", "result": 5, "unit": "h"},
      {"measurement": "time at which anti-VPB activity is lost", "setting": "anesthetized rats; [2]", "result": "~100", "unit": "min"},
      {"measurement": "Heart rate (beats/minute)", "setting": "anesthetized rats", "result": "lower"},
      {"measurement": "Inhibition of VPB", "setting": "anesthetized rats", "result": "longer"},
      {"measurement": "Inhibition of tachycardia", "setting": "anesthetized rats", "result": "longer"},
      {"measurement": "Number of VPB", "setting": "anesthetized rats", "result": "lower"},
      {"measurement": "PR interval", "setting": "anesthetized rats", "result": "shorter"},
      {"measurement": "QRS interval", "setting": "anesthetized rats", "result": "no change"},
      {"measurement": "QT interval", "setting": "anesthetized rats", "result": "no change"},
      {"measurement": "anti-VPB activity at the end of the washout period", "setting": "anesthetized rats; [2]", "result": "completely inactive"}
    ]},
    {"smiles": "CC[C@H](C)OC(=O)Cc1oc2ccccc2c1C(=O)c1cc(I)c(OCCN(CC)CC)c(I)c1", "note": "[R,S-2042]", "values": [
      {"measurement": "protection against tachyarrhythmia (heart rate increase after adrenaline)", "setting": "anesthetized rats", "result": "the least potent and shortest acting"},
      {"measurement": "inhibition of the formation of ventricular premature beats (VPB)", "setting": "anesthetized rats; [2]", "result": "even less active than either the R- or the S-isomer"}
    ]}
  ]
}
